From patent publication US20220033396A1, “FURTHER HETEROAROMATIC COMPOUNDS HAVING ACTIVITY AGAINST RSV” (priority 2018, published 2022)

Legend:
in vitro = settings: human
rgRSV224 virus = assay: microbe, parasite or virus in culture; assay type: cell-based; settings: human respiratory syncytial virus, 72 h; rgRSV224 virus (MOI=1), HeLa cells, GFP expression three days post-virus exposure; averaged data of several repeat experiments; read-out: RSV HELA EC50

Row | SMILES | CC50 at 3 days (in vitro) | EC50 (rgRSV224 virus)
1 | C[C@@H]1c2ccccc2CCN1C(=O)c1cc(C2CC2)c2nc(-c3ccc(/C=C/C(=O)O)cc3F)cn2c1 [Compound 31, (R),(E)-3-(4-(8-cyclopropyl-6-(1-methyl-1,2,3,4-tetrahydroisoquinoline-2-carbonyl)imidazo[1,2-a]pyridin-2-yl)-3-fluorophenyl)acrylic acid] | 49.9 µM | 0.158 µM
2 | CCc1cc(C(=O)N2CCc3sc(F)cc3C2C)nn2cc(-c3ccc(NC(=O)N4CC[C@@H](O)C4)cc3F)nc12 (single isomer, unassigned) [Compound 40, (R)-N-(4-(8-ethyl-6-((R*)-2-fluoro-4-methyl-4,5,6,7-tetrahydrothieno[3,2-c]pyridine-5-carbonyl)imidazo[1,2-b]pyridazin-2-yl)-3-fluorophenyl)-3-hydroxypyrrolidine-1-carboxamide] | 29.9 µM | 0.017 µM
3 | C[C@@H]1c2ccccc2CCN1C(=O)c1cc(C2CC2)c2nc(-c3ccc(N4CC[C@H](C(N)=O)C4)cc3F)cn2c1 [Compound 10, (3S)-1-(4-{8-Cyclopropyl-6-[(1R)-1-methyl-1,2,3,4-tetrahydroisoquinoline-2-carbonyl]imidazo[1,2-a]pyridin-2-yl}-3-fluorophenyl)pyrrolidine-3-carboxamide] | 70.4 µM | 0.049 µM
4 | Cc1c(-c2ccc(N3CC[C@H](C(N)=O)C3)cc2F)nc2c(C3CC3)cc(C(=O)N3CCc4ccccc4[C@H]3C)cn12 [Compound 21, (3S)-1-(4-{8-Cyclopropyl-3-methyl-6-[(1R)-1-methyl-1,2,3,4-tetrahydroisoquinoline-2-carbonyl]imidazo[1,2-a]pyridin-2-yl}-3-fluorophenyl)pyrrolidine-3-carboxamide] | 35 µM | 0.638 µM
5 | C[C@@H]1CCCCCN1C(=O)c1cc(C2CC2)c2nc(-c3ccc([C@H]4C[C@@H]4C(=O)O)cc3F)cn2n1 [Compound 33, (1S,2S)-2-(4-{8-Cyclopropyl-6-[(2R)-2-methylazepane-1-carbonyl]imidazo[1,2-b]pyridazin-2-yl}-3-fluorophenyl)cyclopropane-1-carboxylic Acid] | 50.5 µM | 0.067 µM
6 | C[C@@H]1c2ccccc2CCN1C(=O)c1cc(C2CC2)c2nc(-c3ccc4c(c3F)C=C(C(=O)O)CO4)cn2c1 [Compound 29, (R)-6-(8-cyclopropyl-6-(1-methyl-1,2,3,4-tetrahydroisoquinoline-2-carbonyl)imidazo[1,2-a]pyridin-2-yl)-5-fluoro-2H-chromene-3-carboxylic Acid] | 49.5 µM | 0.146 µM
7 | CCc1cc(C(=O)N2CCc3ccc(F)cc3C2C)nn2cc(-c3ccc(NC(=O)N4CC[C@@H](O)C4)cc3F)nc12 (single isomer, unassigned) [Compound 41, (R)-N-(4-(8-ethyl-6-((R*)-7-fluoro-1-methyl-1,2,3,4-tetrahydroisoquinoline-2-carbonyl)-imidazo[1,2-b]pyridazin-2-yl)-3-fluorophenyl)-3-hydroxypyrrolidine-1-carboxamide] | 26.8 µM | 0.026 µM
8 | C[C@@H]1c2ccsc2CCN1C(=O)c1cc(C2CC2)c2nc(-c3ccc(N4CC[C@H](C(N)=O)C4)cc3F)cn2c1 (single isomer, unassigned) [Compound 13, (3S)-1-(4-{8-Cyclopropyl-6-[(4*R)-4-methyl-4,5,6,7-tetrahydro-thieno[3,2-c]pyridine-5-carbonyl]imidazo[1,2-a]pyridin-2-yl}-3-fluorophenyl)pyrrolidine-3-carboxamide] | 77.1 µM | 0.037 µM
9 | CCc1cc(C(=O)N2CCc3ccccc3[C@H]2C)nn2cc(-c3ccc(N4CC(O)C4)cc3F)nc12 [Compound 35, (R)-(8-ethyl-2-(2-fluoro-4-(3-hydroxyazetidin-1-yl)phenyl)imidazo[1,2-b]pyridazin-6-yl)(1-methyl-3,4-dihydroisoquinolin-2(1H)-yl)methanone] | 16.3 µM | 0.021 µM
10 | C[C@@H]1c2ccccc2CCN1C(=O)c1cc(C2CC2)c2nc(-c3ccc([C@H]4C[C@@H]4C(=O)O)cc3F)cn2n1 [Compound 32, (1S,2 S)-2-(4-{8-Cyclopropyl-6-[(1R)-1-methyl-1,2,3,4-tetrahydroisoquinoline-2-carbonyl]imidazo[1,2-b]pyridazin-2-yl}-3-fluorophenyl)cyclopropane-1-carboxylic Acid] | 51.5 µM | 0.01 µM
11 | C[C@@H]1c2ccccc2CCN1C(=O)c1cc(C2CC2)c2cc(-c3ccc(NC(=O)N4CC[C@@H](O)C4)cc3F)cn2n1 [Compound 49, (R)-N-(4-(4-cyclopropyl-2-((R)-1-methyl-1,2,3,4-tetrahydroisoquinoline-2-carbonyl)pyrrolo[1,2-b]pyridazin-6-yl)-3-fluorophenyl)-3-hydroxypyrrolidine-1-carboxamide] | 45.5 µM | 0.048 µM
12 | C[C@@H]1c2ccccc2CCN1C(=O)c1cc(C2CC2)c2nc(-c3ccc(NC(=O)N4CC[C@H](O)C4)cc3F)cn2c1 [Compound 4, (3S)-N-(4-{8-Cyclopropyl-6-[(1R)-1-methyl-1,2,3,4-tetrahydroisoquinoline-2-carbonyl]imidazo[1,2-a]pyridin-2-yl}-3-fluorophenyl)-3-hydroxypyrrolidine-1-carboxamide] | 51.4 µM | 0.035 µM
13 | CCc1cc(C(=O)N(CC)C(C)C(C)C)nn2cc(-c3ccc(NC(=O)N4CC[C@@H](O)C4)cc3F)nc12 (stereo partly drawn) [Compound 42, N,8-diethyl-2-(2-fluoro-4-((R)-3-hydroxypyrrolidine-1-carboxamido)phenyl)-N-(3-methylbutan-2-yl)imidazo[1,2-b]pyridazine-6-carboxamide] | 46.8 µM | 5.55 µM
14 | C[C@@H]1c2ccccc2CCN1C(=O)c1cc(-c2cccc(F)c2)c2nc(-c3ccc(NC(=O)N4CC[C@@H](O)C4)cc3F)cn2n1 [Compound 43, (R)-N-(3-fluoro-4-(8-(3-fluorophenyl)-6-((R)-1-methyl-1,2,3,4-tetrahydroisoquinoline-2-carbonyl)imidazo[1,2-b]pyridazin-2-yl)phenyl)-3-hydroxypyrrolidine-1-carboxamide] | > 100 µM | 0.022 µM
15 | CNC(=O)[C@H]1CCN(c2ccc(-c3cn4cc(C(=O)N5CCc6ccccc6[C@H]5C)cc(C5CC5)c4n3)c(F)c2)C1 [Compound 11, (3S)-1-(4-{8-Cyclopropyl-6-[(1R)-1-methyl-1,2,3,4-tetrahydroisoquinoline-2-carbonyl]imidazo[1,2-a]pyridin-2-yl}-3-fluorophenyl)-N-methylpyrrolidine-3-carboxamide] | > 100 µM | 0.062 µM
16 | CCc1cc(C(=O)N2CCc3ccccc3[C@H]2C)nn2cc(-c3ccc(/C=C/C(=O)O)cc3F)nc12 [Compound 36, (R,E)-3-(4-(8-ethyl-6-(1-methyl-1,2,3,4-tetrahydroisoquinoline-2-carbonyl)imidazo[1,2-b]pyridazin-2-yl)-3-fluorophenyl)acrylic Acid] | 17.2 µM | 0.039 µM
